10 compounds from patent publication US9428507B2, “Compounds for the treatment of malaria” (The Broad Institute, Inc., priority 2013, dated 2016) can be followed below.

Molecules are shown by their SMILES.

This assay relates to Dd2 strain of P. falciparum. Kind of assay: Activity against the Dd2 strain of P. falciparum (SYBR Green I, 72-h incubation). Conditions: Plasmodium falciparum, DD2, 72 h, read-out: EC^50 Dd2. The assay is classed as cell-based. The gist of the method: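 Dd2 parasites at 1% parasitemia and 1.0% hematocrit in albumax II screening medium, 72 h at 37° C under 93% N2/4% CO2/3% O2; final DMSO 0.125%. Growth read as SYBR Green I fluorescence (485/530 nm) after lysis and 24 h staining. 20 μM mefloquine defined background, DMSO baseline.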
For `COc1ccc(CN2CC3(C2)CN(C(=O)CN(C)C)[C@H](CO)c2[nH]c4cc(OC)ccc4c23)cc1` [Compound 97, (S)-2-(dimethylamino)-1-(1′-(hydroxymethyl)-7′-methoxy-1-(4-methoxybenzyl)spiro[azetidine-3,4′-pyrido[3,4-b]indol]-2′(1′H,3′H,9′H)-yl)ethanone], the EC50 came to 1640 nM. To `CCCC(=O)N1CCC2(CC1)CN(S(=O)(=O)c1ccc(C)cc1)[C@@H](CO)c1[nH]c3cc(OC)ccc3c12` [Compound 98, (R)-1-(1′-(hydroxymethyl)-7′-methoxy-2′-tosyl-1′,2′,3′,9′-tetrahydrospiro[piperidine-4,4′-pyrido[3,4-b]indol]-1-yl)butan-1-one] belongs 98 nM; to `COc1ccc2c3c(n(C)c2c1)[C@@H](CO)N(C(=O)C1CCCC1)CC31CN(C(=O)Nc2cccc(F)c2)C1` [Compound 99, (S)-2′-(cyclopentanecarbonyl)-N-(3-fluorophenyl)-1′-(hydroxymethyl)-7′-methoxy-9′-methyl-1′,2′,3′,9′-tetrahydrospiro [azetidine-3,4′-pyrido[3,4-b]indole]-1-carboxamide], 1880 nM; to `COc1ccc2c3c(n(C)c2c1)[C@@H](CO)N(C(=O)C1CCCC1)CC31CCN(C(=O)Nc2cccc(F)c2)CC1` [Compound 100, (S)-2′-(cyclopentanecarbonyl)-N-(3-fluorophenyl)-1′-(hydroxymethyl)-7′-methoxy-9′-methyl-1′,2′,3′,9′-tetrahydrospiro[piperidine-4,4′-pyrido[3,4-b]indole]-1-carboxamide], 418 nM. As for `COc1ccc2c3c(n(C)c2c1)[C@@H](CO)N(C(=O)Nc1ccc(F)cc1)CC31CCN(Cc2ccccn2)CC1` [Compound 101, (S)-N-(4-fluorophenyl)-1′-(hydroxymethyl)-7′-methoxy-9′-methyl-1-(pyridin-2-ylmethyl)-3′,9′-dihydrospiro [piperidine-4,4′-pyrido[3,4-b]indole]-2′(1′H)-carboxamide], the EC50 was found to be 2050 nM. Next, `COc1ccc2c3c([nH]c2c1)[C@H](CO)NCC31CCN(C(=O)Nc2ccc3c(c2)OCO3)CC1` [Compound 102, (R)-N-(benzo[d] [1,3]dioxol-5-yl)-1′-(hydroxymethyl)-7′-methoxy-1′,2′,3′,9′-tetrahydrospiro [piperidine-4,4′-pyrido[3,4-b]indole]-1-carboxamide]: 490 nM. Next, `COc1ccc2c3c([nH]c2c1)[C@H](CO)N(C(=O)C1CCCCC1)CC31CCN(Cc2nccs2)CC1` [Compound 103, (R)-cyclohexyl (1′-(hydroxymethyl)-7′-methoxy-1-(thiazol-2-ylmethyl)spiro[piperidine-4,4′-pyrido[3,4-b]indol]-2′(1′H,3′H,9′H)-yl)methanone]: 182 nM; `COc1ccc2c3c([nH]c2c1)[C@H](CO)N(C(=O)C1CCOCC1)CC31CCN(Cc2nccs2)CC1` [Compound 104, (R)-(1′-(hydroxymethyl)-7′-methoxy-1-(thiazol-2-ylmethyl)spiro[piperidine-4,4′-pyrido[3,4-b]indol]-2′(1′H,3′H,9′H)-yl)(tetrahydro-2H-pyran-4-yl)methanone]: 467 nM; `COc1ccc2c3c([nH]c2c1)[C@H](CO)N(C(=O)Cc1ccccc1)CC31CCN(C(=O)Nc2ccccc2F)CC1` [Compound 105, (R)-N-(2-fluorophenyl)-1′-(hydroxymethyl)-7′-methoxy-2′-(2-phenylacetyl)-1′,2′,3′,9′-tetrahydrospiro [piperidine-4,4′-pyrido[3,4-b]indole]-1-carboxamide]: 269 nM.

As to `COc1ccc2c3c(n(C)c2c1)[C@@H](CO)N(C(=O)Nc1ccc(F)cc1)CC31CCN(Cc2cccnc2)CC1` [Compound 106, (S)-N-(4-fluorophenyl)-1′-(hydroxymethyl)-7′-methoxy-9′-methyl-1-(pyridin-3-ylmethyl)-3′,9′-dihydrospiro [piperidine-4,4′-pyrido[3,4-b]indole]-2′(1′H)-carboxamide], the EC50 turned out to be 727 nM.
